Source: patent US20250049930A1, “PROTAC MOLECULES TARGETING FOXP3 AND USES THEREOF” (CEDARS-SINAI MEDICAL CENTER, priority 2022, published 2025)
Residues, ends and D or L forms follow the SMILES beside them. *: point of attachment. X1 = O=C1CCC(N2C(=O)c3cccc(*)c3C2=O)C(=O)N1; PEG4 = NCCOCCOCCOCCOCCC(=O)O

Experiments:
[1] = system: CD4+ and CD8+ lymphocytes; test: Ex vivo restimulation of splenocytes/lymph nodes from treated tumor-bearing mice with CA9 peptide, flow cytometry; assay type: in vivo, Balb/C mice; conditions: spleen and lymph nodes harvested on day 28, restimulated ex vivo with CA9 peptide
Description: FIGS. 4A-4D depict that PF enhanced the antitumor immunity provided by αPD1 or mTOR inhibition in mice. Mice tumors were established by injecting RENCA-CA9 cells subcutaneously in the flank (day 0) of Balb/C mice (6-8 mice per group). PF was administered i.p., twice a week, throughout the experiment, starting on day 10 (FIGS. 4A and 4C). αPD1 was administered i.p., twice a week, throughout the experiment, starting on days 5 (FIG. 4A). Splenocytes were harvested, and restimulated ex vivo with mouse CA9 peptide. The splenocytes were assessed by flow cytometry for Granzyme B, IFNγ or TNFα after gating on CD4 or CD8 (FIG. 4B). In a similar mouse tumor growth experiment, temsirolimus was administered i.p. on day 10, every other day, for 14 days (FIG. 4C). Similar to FIG. 4B, splenocytes were harvested, restimulated and analyzed (FIG. 4D). Representative results are shown for experiments conducted at least twice. […]
FIGS. 6A-6C depict that PF enhances immune activation and CD8+ memory lymphocyte formation. […] Spleen and lymph nodes were harvested on day 28 and restimulated ex vivo with CA9 peptide and assessed by flow cytometry (FIGS. 6B and 6C). CD8+ lymphocytes treated with PF had increased activation as measured by IFNγ or TNFα (FIG. 6B). […]
To assess T cells in mice, CD4+ FoxP3+ cells from serial peripheral blood draws were assessed by flow cytometry. […]

[2] = biological target: cereblon (Homo sapiens, UniProt Q96SW2); test: SPR assay, binary complex; assay type: binding; conditions: 25° C., binary complex of cereblon and P-FoxP3
Chain of cereblon (Q96SW2 whole entry): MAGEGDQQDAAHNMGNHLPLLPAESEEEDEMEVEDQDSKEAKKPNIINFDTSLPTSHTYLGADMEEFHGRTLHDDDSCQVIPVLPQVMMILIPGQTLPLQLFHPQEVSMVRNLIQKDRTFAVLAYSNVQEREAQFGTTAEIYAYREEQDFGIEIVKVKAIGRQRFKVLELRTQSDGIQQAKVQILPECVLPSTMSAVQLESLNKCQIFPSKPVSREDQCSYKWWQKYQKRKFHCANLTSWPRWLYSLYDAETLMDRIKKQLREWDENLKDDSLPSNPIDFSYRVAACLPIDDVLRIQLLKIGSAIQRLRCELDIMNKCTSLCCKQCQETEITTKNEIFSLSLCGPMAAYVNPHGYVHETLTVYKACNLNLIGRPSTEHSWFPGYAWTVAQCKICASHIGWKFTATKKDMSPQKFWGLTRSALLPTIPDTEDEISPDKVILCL
Description: The SPR assay for ternary complex cooperativity was performed by BOC Sciences who provided the following details: Various concentrations of cereblon were dissolved in water and manually printed onto the 47 nm gold-coated PlexArray Nanocapture Sensor Chip (Plexera Bioscience, Seattle, WA) at 40% humidity. Each concentration was printed in replicate, and each spot contained […] of sample solution. The chip was incubated overnight in 80% humidity at 4° C., and rinsed with 10×PBST for 10 minutes, 1×PBST for 10 minutes, and deionized water twice for 10 minutes. The chip was then blocked with 5% non-fat milk in water overnight, washed as before, and then dried under a stream of nitrogen.
SPR imaging measurements were performed with PlexAray HT (Plexera Bioscience, Seattle, WA, US). Buffers and samples were injected by a non-pulsatile piston pump into the 30 μL flow cell. […] The signal changes after binding and washing (in AU) are recorded as the assay value. Selected protein-grafted regions in the SPR images were analyzed, and the average reflectivity variations of the chosen areas were plotted as a function of time. Real-time binding signals were recorded and analyzed by Data Analysis Module (DAM, Plexera Bioscience, Seattle, WA, US). […]

## CSCC[C@H](NC(=O)[C@H](C)NC(=O)[C@H](Cc1ccccc1)NC(=O)[C@H](Cc1ccccc1)NC(=O)[C@@H]1CCCN1C(=O)[C@H](Cc1c[nH]c2ccccc12)NC(=O)[C@H](CCSC)NC(=O)[C@H](CCCCN)NC(=O)[C@H](CCCNC(=N)N)NC(=O)[C@H](Cc1ccccc1)NC(=O)[C@H](CO)NC(=O)[C@H](CCC(N)=O)NC(=O)[C@H](Cc1ccccc1)NC(=O)[C@H](CC(=O)O)NC(=O)[C@H](CCCNC(=N)N)NC(=O)CCOCCOCCOCCOCCNc1cccc2c1C(=O)N(C1CCC(=O)NC1=O)C2=O)C(=O)O (some centres unmarked) [PF, Pomalidomide-PEG4-RDFQSFRKMWPFFAM] ({X1-PEG4}-RDFQSFRKMWPFFAM-OH)
[1]
  memory markers (CD62L, CD44 and Eomes) in CD8+ cells: displayed a memory phenotype with increase in CD62L, CD44 and Eomes expression
[2]
  Kd: 987 nM
